Data reported in article PMC5626787, “Mouse Nudt13 is a Mitochondrial Nudix Hydrolase with NAD(P)H Pyrophosphohydrolase Activity” (The Protein Journal, 2017).

Target: T1, Nudt13 (Mus musculus, UniProt Q8JZU0)
T1 construct: baculovirus, High Five insect cells
T1 sequence (Q8JZU0 1-352): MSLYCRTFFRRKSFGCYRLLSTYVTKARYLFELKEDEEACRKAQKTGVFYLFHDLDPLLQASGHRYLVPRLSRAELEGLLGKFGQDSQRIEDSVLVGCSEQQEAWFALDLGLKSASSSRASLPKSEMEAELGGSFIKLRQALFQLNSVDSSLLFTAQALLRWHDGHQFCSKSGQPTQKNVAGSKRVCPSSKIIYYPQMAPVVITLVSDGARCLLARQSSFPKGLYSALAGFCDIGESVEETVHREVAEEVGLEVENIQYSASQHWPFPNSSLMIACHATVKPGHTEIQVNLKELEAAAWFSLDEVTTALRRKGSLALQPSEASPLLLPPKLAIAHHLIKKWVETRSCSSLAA
Experiment: HPLC product analysis, non-linear regression, Michaelis-Menten
Format: biochemical
Conditions: 2 mM Mn2+, 50 mM Tris-HCl pH 8.0, 1 mM dithiothreitol, 37 °C; hydrolysis to NMNH and AMP
Experimental: HPLC product analysis, non-linear regression, Michaelis-Menten on Nudt13 | K m and k cat values were determined for NADH under optimal assay conditions

Km: 340 µM
Structure (SMILES): NC(=O)C1=CN([C@@H]2O[C@H](COP(=O)(O)OP(=O)(O)OC[C@H]3O[C@@H](n4cnc5c(N)ncnc54)[C@H](O)[C@@H]3O)[C@@H](O)[C@H]2O)C=CC1 [NADH]
